Data reported in patent publication US8916557B2, “Substituted 4-Aryl-N-phenyl-1,3,5-triazin-2-amines” (Bayer Intellectual Property GmbH, priority 2011, dated 2014).

Experiments:
[1] = target: T1, CDK9/CycT1 (Homo sapiens, UniProt P50750); assay: CDK9/CycT1 kinase assay (TR-FRET); assay type: biochemical; conditions: Method 1, 10 μM ATP
T1 construct: Recombinant full-length His-tagged human CDK9 and CycT1; His; purchased Invitrogen PV4131; host or cells: insect cells
Description: 1. CDK9/CycT1 Kinase Assay:
CDK9/CycT1-inhibitory activity of compounds of the present invention was quantified employing the CDK9/CycT1 TR-FRET assay as described in the following paragraphs:
Recombinant full-length His-tagged human CDK9 and CycT1, expressed in insect cells and purified by Ni-NTA affinity chromatography, were purchased from Invitrogen (Cat. No PV4131). As substrate for the kinase reaction biotinylated peptide biotin-Ttds-[…] (C-terminus in amid form) was used which can be purchased e.g. form the company JERINI Peptide Technologies (Berlin, Germany). For the assay 50 nl of a 100fold concentrated solution of the test compound in DMSO was pipetted into a black low volume 384well microtiter plate (Greiner Bio-One, Frickenhausen, Germany), 2 μl of a solution of CDK9/CycT1 in aqueous assay buffer [50 mM Tris/HCl pH 8.0, 10 mM MgCl2, 1.0 mM dithiothreitol, 0.1 mM sodium ortho-vanadate, 0.01% (v/v) Nonidet-P40 (Sigma)] were added and the mixture was incubated for 15 min at 22° C. to allow pre-binding of the test compounds to the enzyme before the start of the kinase reaction. Then the kinase reaction was started by the addition of 3 μl of a solution of adenosine-tri-phosphate (ATP, 16.7 μM=>final conc. in the 5 μl assay volume is 10 μM) and substrate (1.67 μM=>final conc. in the 5 μl assay volume is 1 μM) in assay buffer and the resulting mixture was incubated for a reaction time of 25 min at 22° C. The concentration of CDK9/CycT1 was adjusted depending of the activity of the enzyme lot and was chosen appropriate to have the assay in the linear range, typical concentrations were in the range of 1 μg/ml. The reaction was stopped by the addition of 5 μl of a solution of TR-FRET detection reagents (0.2 μM streptavidine-XL665 [Cisbio Bioassays, Codolet, France] and 1 nM anti-RB(pSer807/pSer811)-antibody from BD Pharmingen [#558389] and 1.2 nM LANCE EU-W1024 labeled anti-mouse IgG antibody [Perkin-Elmer, product no. AD0077]) in an aqueous EDTA-solution (100 mM EDTA, 0.2% (w/v) bovine serum albumin in 100 mM HEPES/NaOH pH 7.0).
(§1) The resulting mixture was incubated 1 h at 22° C. to allow the formation of complex between the phosphorylated biotinylated peptide and the detection reagents. Subsequently the amount of phosphorylated substrate was evaluated by measurement of the resonance energy transfer from the Eu-chelate to the streptavidine-XL. Therefore, the fluorescence emissions at 620 nm and 665 nm after excitation at 350 nm was measured in a HTRF reader, e.g. a Rubystar (BMG Labtechnologies, Offenburg, Germany) or a Viewlux (Perkin-Elmer). The ratio of the emissions at 665 nm and at 622 nm was taken as the measure for the amount of phosphorylated substrate.

[2] = target: T2, CDK2/CycE (Homo sapiens, UniProt P24941); assay: CDK2/CycE kinase assay (TR-FRET); assay type: biochemical; conditions: Method 2, 10 μM ATP
T2 construct: GST; purchased ProQinase GmbH (Freiburg, Germany); host or cells: insect cells (Sf9)
Description: 2. CDK2/CycE Kinase Assay:
CDK2/CycE-inhibitory activity of compounds of the present invention was quantified employing the CDK2/CycE TR-FRET assay as described in the following paragraphs:
Recombinant fusion proteins of GST and human CDK2 and of GST and human CycE, expressed in insect cells (Sf9) and purified by Glutathion-Sepharose affinity chromatography, were purchased from ProQinase GmbH (Freiburg, Germany). As substrate for the kinase reaction biotinylated peptide biotin-Ttds-[…] (C-terminus in amid form) was used which can be purchased e.g. form the company JERINI Peptide Technologies (Berlin, Germany).
For the assay 50 nl of a 100fold concentrated solution of the test compound in DMSO was pipetted into a black low volume 384well microtiter plate (Greiner Bio-One, Frickenhausen, Germany), 2 μl of a solution of CDK2/CycE in aqueous assay buffer [50 mM Tris/HCl pH 8.0, 10 mM MgCl2, 1.0 mM dithiothreitol, 0.1 mM sodium ortho-vanadate, 0.01% (v/v) Nonidet-P40 (Sigma)] were added and the mixture was incubated for […] at 22° C. to allow pre-binding of the test compounds to the enzyme before the start of the kinase reaction. Then the kinase reaction was started by the addition of 3 μl of a solution of adenosine-tri-phosphate (ATP, 16.7 μM=>final conc. in the 5 it assay volume is 10 μM) and substrate (1.25 μM=>final conc. in the 5 it assay volume is 0.75 μM) in assay buffer and the resulting mixture was incubated for a reaction time of […] at 22° C. The concentration of CDK2/CycE was adjusted depending of the activity of the enzyme lot and was chosen appropriate to have the assay in the linear range, typical concentrations were in the range of 130 ng/ml. The reaction was stopped by the addition of 5 it of a solution of TR-FRET detection reagents (0.2 μM streptavidine-XL665 [Cisbio Bioassays, Codolet, France] and 1 nM anti-RB(pSer807/pSer811)-antibody from BD Pharmingen [#558389] and 1.2 nM LANCE EU-W1024 labeled anti-mouse IgG antibody [Perkin-Elmer, product no. AD0077]) in an aqueous EDTA-solution (100 mM EDTA, 0.2% (w/v) bovine serum albumin in 100 mM HEPES/NaOH pH 7.0).
as §1, with “TR-FRET” for “HTRF”

[3] = test system: HeLa human cervical tumour cells; assay: Proliferation assay (crystal violet), HeLa; assay type: cell-based; conditions: read-out: Inhibition of HeLa cell proliferation

T1 sequence (P50750 whole entry): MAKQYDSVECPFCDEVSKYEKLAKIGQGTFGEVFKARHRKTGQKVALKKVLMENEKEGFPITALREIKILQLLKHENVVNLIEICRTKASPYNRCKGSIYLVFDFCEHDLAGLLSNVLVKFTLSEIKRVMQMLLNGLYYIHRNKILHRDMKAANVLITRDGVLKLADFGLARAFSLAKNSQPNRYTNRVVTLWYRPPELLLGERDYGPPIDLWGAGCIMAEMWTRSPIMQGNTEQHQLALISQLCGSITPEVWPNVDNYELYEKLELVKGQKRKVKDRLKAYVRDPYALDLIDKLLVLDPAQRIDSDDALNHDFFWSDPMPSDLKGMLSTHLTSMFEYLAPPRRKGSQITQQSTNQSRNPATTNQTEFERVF
T1 sequence (O60563 whole entry partner): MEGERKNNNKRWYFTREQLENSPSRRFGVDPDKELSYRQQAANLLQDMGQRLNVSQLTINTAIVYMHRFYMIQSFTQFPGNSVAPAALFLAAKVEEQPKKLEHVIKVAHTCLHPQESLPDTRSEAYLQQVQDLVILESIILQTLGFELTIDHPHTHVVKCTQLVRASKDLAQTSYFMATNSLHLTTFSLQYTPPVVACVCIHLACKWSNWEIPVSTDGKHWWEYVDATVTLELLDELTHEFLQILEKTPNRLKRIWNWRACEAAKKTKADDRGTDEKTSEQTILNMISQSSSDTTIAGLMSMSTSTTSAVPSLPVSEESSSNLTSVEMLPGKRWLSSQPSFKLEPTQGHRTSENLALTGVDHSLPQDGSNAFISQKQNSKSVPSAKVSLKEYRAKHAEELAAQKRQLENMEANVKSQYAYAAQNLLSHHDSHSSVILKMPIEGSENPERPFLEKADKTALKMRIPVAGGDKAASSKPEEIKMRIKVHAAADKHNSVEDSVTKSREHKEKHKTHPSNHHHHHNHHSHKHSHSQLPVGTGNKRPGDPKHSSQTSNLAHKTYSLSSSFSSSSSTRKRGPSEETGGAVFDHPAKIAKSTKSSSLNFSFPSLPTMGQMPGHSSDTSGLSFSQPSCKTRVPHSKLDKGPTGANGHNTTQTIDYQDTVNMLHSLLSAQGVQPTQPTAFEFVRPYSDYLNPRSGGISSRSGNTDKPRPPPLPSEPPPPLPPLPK

CS(=O)(=O)Cc1cccc(Nc2ncnc(-c3ccc(F)cc3OC3CC3)n2)c1 [Example 41, 4-[2-(Cyclopropyloxy)-4-fluorophenyl]-N-{3-[(methylsulfonyl)methyl]phenyl}-1,3,5-triazin-2-amine]
IC50 [1]: 29 nM | IC50 [2]: 1000 nM | IC50 [3]: 900 nM

CC(C)COc1cc(F)ccc1-c1ncnc(Nc2cccc(CS(C)(=O)=O)c2)n1 [Example 58, 4-[4-Fluoro-2-(2-methylpropoxy)phenyl]-N-{3-[(methylsulfonyl)methyl]phenyl}-1,3,5-triazin-2-amine]
IC50 [1]: 46 nM | IC50 [2]: 5100 nM | IC50 [3]: 1700 nM

CC(C)S(=O)(=O)Cc1cccc(Nc2ncnc(-c3ccccc3OCc3cccc(Cl)c3)n2)c1 [Example 34, 4-{2-[(3-Chlorobenzyl)oxy]phenyl}-N-{3-[(propan-2-ylsulfonyl)methyl]phenyl}-1,3,5-triazin-2-amine]
IC50 [1]: 10 nM | IC50 [2]: 800 nM | IC50 [3]: 1200 nM

CS(=O)(=O)Cc1cccc(Nc2ncnc(-c3ccc(F)cc3OCc3cc(F)c(F)cc3F)n2)c1 [Example 75, 4-{4-Fluoro-2-[(2,4,5-trifluorobenzyl)oxy]phenyl}-N-{3-[(methylsulfonyl)-methyl]phenyl}-1,3,5-triazin-2-amine]
IC50 [1]: 6 nM | IC50 [3]: 1100 nM

CS(=O)(=O)Cc1cccc(Nc2ncnc(-c3ccc(F)cc3OCCC3CC3)n2)c1 [Example 48, 4-[2-(2-Cyclopropylethoxy)-4-fluorophenyl]-N-{3-[(methylsulfonyl)methyl]phenyl}-1,3,5-triazin-2-amine]
IC50 [1]: 29 nM | IC50 [2]: 1300 nM | IC50 [3]: 1000 nM

CC1(COc2cc(F)ccc2-c2ncnc(Nc3cccc(CS(C)(=O)=O)c3)n2)CC1 [Example 49, 4-{4-Fluoro-2-[(1-methylcyclopropyl)methoxy]phenyl}-N-{3-[(methylsulfonyl)-methyl]phenyl}-1,3,5-triazin-2-amine]
IC50 [1]: 11 nM | IC50 [2]: 640 nM | IC50 [3]: 1200 nM

CC(C)S(=O)(=O)Cc1cccc(Nc2ncnc(-c3cc(F)ccc3OCc3cccc(F)c3)n2)c1 [Example 38, 4-{5-Fluoro-2-[(3-fluorobenzyl)oxy]phenyl}-N-{3-[(prop-2-ylsulfonyl)methyl]phenyl}-1,3,5-triazin-2-amine]
IC50 [1]: 6 nM | IC50 [2]: 320 nM | IC50 [3]: 840 nM

CS(=O)(=O)Cc1cccc(Nc2ncnc(-c3ccc(F)cc3OCC3CCC3)n2)c1 [Example 56, 4-[2-(Cyclobutylmethoxy)-4-fluorophenyl]-N-{3-[(methylsulfonyl)methyl]phenyl}-1,3,5-triazin-2-amine]
IC50 [1]: 27 nM | IC50 [2]: 1400 nM | IC50 [3]: 1100 nM

CS(=O)(=O)Cc1cccc(Nc2ncnc(-c3ccc(F)cc3OCCCF)n2)c1 [Example 54, 4-[4-Fluoro-2-(3-fluoropropoxy)phenyl]-N-{3-[(methylsulfonyl)methyl]phenyl}-1,3,5-triazin-2-amine]
IC50 [1]: 29 nM | IC50 [2]: 1500 nM | IC50 [3]: 1300 nM

CCCCCOc1cc(F)ccc1-c1ncnc(Nc2cccc(CS(C)(=O)=O)c2)n1 [Example 45, 4-[4-Fluoro-2-(pentyloxy)phenyl]-N-{3-[(methylsulfonyl)-methyl]phenyl}-1,3,5-triazin-2-amine]
IC50 [1]: 4 nM | IC50 [2]: 990 nM | IC50 [3]: 1000 nM

CCCOc1cc(F)ccc1-c1ncnc(Nc2cccc(CS(C)(=O)=O)c2)n1 [Example 43, 4-(4-Fluoro-2-propoxyphenyl)-N-{3-[(methylsulfonyl)-methyl]phenyl}-1,3,5-triazin-2-amine]
IC50 [1]: 12 nM | IC50 [2]: 860 nM | IC50 [3]: 1100 nM

CS(=O)(=O)Cc1cccc(Nc2ncnc(-c3ccc(F)cc3OCc3cc(F)cc(C(F)(F)F)c3)n2)c1 [Example 78, 4-(4-Fluoro-2-{[3-fluoro-5-(trifluoromethyl)benzyl]oxy}phenyl)-N-{3-[(methylsulfonyl)-methyl]-phenyl}-1,3,5-triazin-2-amine]
IC50 [1]: 4 nM | IC50 [3]: 950 nM

CS(=O)(=O)Cc1cccc(Nc2ncnc(-c3cccc4c3OCC4)n2)c1 [Example 13, 4-(2,3-Dihydro-1-benzofuran-7-yl)-N-{3-[(methylsulfonyl)methyl]phenyl}-1,3,5-triazin-2-amine]
IC50 [1]: 15 nM | IC50 [2]: 710 nM | IC50 [3]: 950 nM

CCCCCCOc1cc(F)ccc1-c1ncnc(Nc2cccc(CS(C)(=O)=O)c2)n1 [Example 46, 4-[4-Fluoro-2-(hexyloxy)phenyl]-N-{3-[(methylsulfonyl)methyl]phenyl}-1,3,5-triazin-2-amine]
IC50 [1]: 15 nM | IC50 [2]: 2700 nM | IC50 [3]: 2800 nM

C[C@@H](Oc1cc(F)ccc1-c1ncnc(Nc2cccc(CS(C)(=O)=O)c2)n1)c1ccc(F)cc1 [Example 67, 4-{4-Fluoro-2-[(1R)-1-(4-fluorophenyl)ethoxy]phenyl}-N-{3-[(methylsulfonyl)-methyl]phenyl}-1,3,5-triazin-2-amine]
IC50 [1]: 8 nM | IC50 [2]: 1300 nM | IC50 [3]: 1600 nM

CS(=O)(=O)Cc1cccc(Nc2ncnc(-c3ccc(F)cc3OCc3cccc(F)c3F)n2)c1 [Example 80, 4-{2-[(2,3-Difluorobenzyl)-oxy]-4-fluorophenyl}-N-{3-[(methylsulfonyl)-methyl]phenyl}-1,3,5-triazin-2-amine]
IC50 [1]: 21 nM | IC50 [2]: 2000 nM | IC50 [3]: 890 nM

CS(=O)(=O)Cc1cccc(Nc2ncnc(-c3ccc(F)cc3OCc3cc(F)ccc3F)n2)c1 [Example 81, 4-{2-[(2,5-Difluorobenzyl)-oxy]-4-fluorophenyl}-N-{3-[(methylsulfonyl)methyl]phenyl}-1,3,5-triazin-2-amine]
IC50 [1]: 5 nM | IC50 [3]: 820 nM

COc1cc(Cl)ccc1-c1ncnc(Nc2cccc(CS(C)(=O)=O)c2)n1 [Example 32, 4-(4-Chloro-2-methoxyphenyl)-N-{3-[(methylsulfonyl)methyl]phenyl}-1,3,5-triazin-2-amine]
IC50 [1]: 25 nM | IC50 [2]: 2300 nM
